Laboratory results reported in patent publication US20250127741A1, “MEDICINAL COMPOSITION COMPRISING RIBOSE AND AMINO ACIDS” (MEE-HU PHARMA GMBH, priority 2021, published 2025).

System: resistant strain of E. Coli (O157.H7)
Assay: In vivo animal study #2: granuloma pouch model in Wistar rats, bacterial counts in pouch fluid
Details: male Wistar rats; given alone every 12 h, six doses (co-trimoxazole 30 mg/kg i.p.; inventive composition 500 mg/kg p.o.); all time intervals
Experimental: Male Wistar rats, weighing 200-250 g, were infected with a resistant strain of E. Coli (O157.H7) using the granuloma pouch model. Specifically, pouches were produced by injecting 30 ml of sterile filtered air followed by injection of 0.5 ml of 0.5% croton oil in sesame seed oil deep into the loose connective dorsal tissue. Two days later, approximately 10 ml of air were withdrawn, and after 2 more days, 2 ml of 1% peptone and 0.35% agar in saline solution were injected in the pouch. On day 10, rats were infected with 10^6 CFU of E. coli suspended in 1.5 ml of THB containing 2.5% gastric mucin and 0.35% agar.
The rats were divided in groups of five rats, and the following drugs, either alone or concurrently administered, were administered every 12 h for three consecutive days, making a total of six doses, starting 24 h after infection: co-trimoxazole (Septrin, GlaxoSmithKline) 30 mg/kg (i.p) and the inventive composition 500 mg/kg (p.o) (the 500 mg referring to the weight of the lyophilisate of Table 1 contained in the amount of mixed solution administered). […]
Samples (0.5 mL) of pouch fluid were withdrawn from each animal just before treatment (0 time), 3 h after the first dose, just before the last dose, 3 and 24 h after the last dose. […] The results represent the average values obtained from all the animals in the same group at the same intervals and expressed as log 10 CFU/ml. […]

co-trimoxazole [cotrimoxazole]
bacterial counts in pouch fluid, difference to control group: no significant differences
